Experimental data reported in the supplement of paper PMC4862054.
Values joined by “and” are separate entries in the source; they are usually repeats but may differ in a detail not shown here. Equal values may be shown once.

How the values were obtained:
Settings in all cases: incubation time: 72 h
BT-474 [1] = assay: normalised viability (% of control), CellTiter-Blue; higher = more viable cells (about 100 = DMSO control)
Method: (§1)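 DSRT, CellTiter-Blue viability, 72 h incubation. Signal is normalised to DMSO and benzethonium chloride controls. Value is the normalised response at dose 3.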

BT-549 = assay: as above
Method: as §1

CAL-120 [2] = assay: as above
Method: as §1

CAL-148 = assay: as above
Method: as §1

CAL-51 = assay: as above
Method: as §1

CAL-85-1 = assay: as above
Method: as §1

DU-4475 [3] = assay: as above
Method: as §1

HCC1143 = assay: as above
Method: as §1

HCC1599 = assay: as above
Method: as §1

HCC1937 [4] = assay: as above
Method: as §1

HDQ-P1 [5] = assay: as above
Method: as §1

Hs578T [6] = assay: as above
Method: as §1

MDA-MB-231 [7] = assay: as above
Method: as §1

MDA-MB-436 = assay: as above
Method: as §1

MDA-MB-453 [8] = assay: as above
Method: as §1

MDA-MB-468 [9] = assay: as above
Method: as §1

MFM-223 [10] = assay: as above
Method: as §1

SK-BR-3 [11] = assay: as above
Method: as §1

BT-474 [12] = assay: drug sensitivity score (DSS), CellTiter-Glo (DSS (AUC-based score)); higher = stronger drug effect (viability inhibition or cytotoxicity); extreme values may be limits of the assay
In short: (§2)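 After 72 h of incubation in 384-well plates with compound at 5 concentrations (10-fold steps, 10,000-fold range set per compound), breast cancer cell lines seeded in 20 µl suspension were read first for CellTox Green fluorescence at 485/520 nm. CellTiter-Glo luminescence was measured next, after 10 min at room temperature. Normalisation on each plate used 0.1 % DMSO and a positive kill control, and the drug sensitivity score was computed from the area under the fitted dose-response curve.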

CAL-120 [13] = assay: as above
In short: as §2

DU-4475 [14] = assay: as above
In short: as §2

HCC1937 [15] = assay: as above
In short: as §2

HDQ-P1 [16] = assay: as above
In short: as §2

Hs578T [17] = assay: as above
In short: as §2

MDA-MB-231 [18] = assay: as above
In short: as §2

MDA-MB-453 [19] = assay: as above
In short: as §2

MDA-MB-468 [20] = assay: as above
In short: as §2

MFM-223 [21] = assay: as above
In short: as §2

SK-BR-3 [22] = assay: as above
In short: as §2

O=P1(N(CCCl)CCCl)NCCCO1 (centres undefined) [Cyclophosphamide]
normalised viability (BT-474 [1]; 400 nM): 118%
normalised viability (BT-549; 400 nM): 117%
normalised viability (CAL-120 [2]; 400 nM): 85.6%
normalised viability (CAL-148; 40 nM): 103%
normalised viability (CAL-51; 40 nM): 107%
normalised viability (CAL-85-1; 40 nM): 101%
normalised viability (DU-4475 [3]; 40 nM): 103%
normalised viability (HCC1143; 400 nM): 90.2%
normalised viability (HCC1599; 400 nM): 109%
normalised viability (HCC1937 [4]; 400 nM): 99.8%
normalised viability (HDQ-P1 [5]; 40 nM): 97.9%
normalised viability (Hs578T [6]; 400 nM): 93%
normalised viability (MDA-MB-231 [7]; 400 nM): 97.8%
normalised viability (MDA-MB-436; 400 nM): 101%
normalised viability (MDA-MB-453 [8]; 40 nM): 110%
normalised viability (MDA-MB-468 [9]; 400 nM): 109%
normalised viability (MFM-223 [10]; 400 nM): 91.1%
normalised viability (SK-BR-3 [11]; 400 nM): 91.6%
drug sensitivity score (BT-474 [12]): 0
drug sensitivity score (CAL-120 [13]): 0
drug sensitivity score (DU-4475 [14]): 0
drug sensitivity score (HCC1937 [15]): 0
drug sensitivity score (HDQ-P1 [16]): 0
drug sensitivity score (Hs578T [17]): 0
drug sensitivity score (MDA-MB-231 [18]): 0
drug sensitivity score (MDA-MB-453 [19]): 0
drug sensitivity score (MDA-MB-468 [20]): 0
drug sensitivity score (MFM-223 [21]): 0
drug sensitivity score (SK-BR-3 [22]): 0

C=C1C[C@@H]2[C@H](CC[C@]3(C)C(=O)CC[C@@H]23)[C@@]2(C)C=CC(=O)C=C12 [Exemestane]
normalised viability (BT-474 [1]; 100 nM): 99.4%
normalised viability (BT-549; 100 nM): 106%
normalised viability (CAL-120 [2]; 100 nM): 92.7%
normalised viability (CAL-148; 10 nM): 95.4%
normalised viability (CAL-51; 10 nM): 96.2%
normalised viability (CAL-85-1; 10 nM): 84.4%
normalised viability (DU-4475 [3]; 10 nM): 91.1%
normalised viability (HCC1143; 100 nM): 96%
normalised viability (HCC1599; 100 nM): 87.6%
normalised viability (HCC1937 [4]; 100 nM): 103%
normalised viability (HDQ-P1 [5]; 10 nM): 102%
normalised viability (Hs578T [6]; 100 nM): 94.4%
normalised viability (MDA-MB-231 [7]; 100 nM): 99.2%
normalised viability (MDA-MB-436; 100 nM): 82.8%
normalised viability (MDA-MB-453 [8]; 10 nM): 102%
normalised viability (MDA-MB-468 [9]; 100 nM): 111%
normalised viability (MFM-223 [10]; 100 nM): 93%
normalised viability (SK-BR-3 [11]; 100 nM): 78%
drug sensitivity score (BT-474 [12]): 0
drug sensitivity score (CAL-120 [13]): 0
drug sensitivity score (DU-4475 [14]): 0
drug sensitivity score (HCC1937 [15]): 0
drug sensitivity score (HDQ-P1 [16]): 0
drug sensitivity score (Hs578T [17]): 0
drug sensitivity score (MDA-MB-231 [18]): 0
drug sensitivity score (MDA-MB-453 [19]): 0
drug sensitivity score (MDA-MB-468 [20]): 0
drug sensitivity score (MFM-223 [21]): 0
drug sensitivity score (SK-BR-3 [22]): 0

COc1cc2ncnc(Nc3ccc(F)c(Cl)c3)c2cc1OCCCN1CCOCC1 [Gefitinib]
normalised viability (BT-474 [1]; 100 nM): 92.3% and 101%
normalised viability (BT-549; 100 nM): 108%
normalised viability (CAL-120 [2]; 100 nM): 81.9% and 92.8%
normalised viability (CAL-148; 10 nM): 84.8% and 87.6%
normalised viability (CAL-51; 10 nM): 107%
normalised viability (CAL-85-1; 10 nM): 94.2% and 95.5%
normalised viability (DU-4475 [3]; 10 nM): 108% and 93.9%
normalised viability (HCC1143; 100 nM): 63% and 86.8%
normalised viability (HCC1599; 100 nM): 102% and 113%
normalised viability (HCC1937 [4]; 100 nM): 102% and 92%
normalised viability (HDQ-P1 [5]; 10 nM): 103% and 100%
normalised viability (Hs578T [6]; 100 nM): 86.3% and 99.7%
normalised viability (MDA-MB-231 [7]; 100 nM): 93.9% and 97%
normalised viability (MDA-MB-436; 100 nM): 89.9% and 93.7%
normalised viability (MDA-MB-453 [8]; 10 nM): 96.9%
normalised viability (MDA-MB-468 [9]; 100 nM): 81.7% and 89.3%
normalised viability (MFM-223 [10]; 100 nM): 98.7% and 89.5%
normalised viability (SK-BR-3 [11]; 100 nM): 80.9% and 72.1%
drug sensitivity score (BT-474 [12]): 0
drug sensitivity score (CAL-120 [13]): 0
drug sensitivity score (DU-4475 [14]): 0
drug sensitivity score (HCC1937 [15]): 2.45
drug sensitivity score (HDQ-P1 [16]): 7.21
drug sensitivity score (Hs578T [17]): 0
drug sensitivity score (MDA-MB-231 [18]): 0
drug sensitivity score (MDA-MB-453 [19]): 0
drug sensitivity score (MDA-MB-468 [20]): 5.4
drug sensitivity score (MFM-223 [21]): 0
drug sensitivity score (SK-BR-3 [22]): 10.1

O=C(Nc1ccncc1)C(=O)c1cn(Cc2ccc(Cl)cc2)c2ccccc12 [Indibulin]
normalised viability (BT-474 [1]; 100 nM): 41.7%
normalised viability (BT-549; 100 nM): 69.9%
normalised viability (CAL-120 [2]; 100 nM): 36.5%
normalised viability (CAL-148; 10 nM): 105%
normalised viability (CAL-51; 10 nM): 100%
normalised viability (CAL-85-1; 10 nM): 106%
normalised viability (DU-4475 [3]; 10 nM): 108%
normalised viability (HCC1143; 100 nM): 64%
normalised viability (HCC1599; 100 nM): 146%
normalised viability (HCC1937 [4]; 100 nM): 30.4%
normalised viability (HDQ-P1 [5]; 10 nM): 95.8%
normalised viability (Hs578T [6]; 100 nM): 67.7%
normalised viability (MDA-MB-231 [7]; 100 nM): 52%
normalised viability (MDA-MB-436; 100 nM): 73.8%
normalised viability (MDA-MB-453 [8]; 10 nM): 84.8%
normalised viability (MDA-MB-468 [9]; 100 nM): 61.1%
normalised viability (MFM-223 [10]; 100 nM): 108%
normalised viability (SK-BR-3 [11]; 100 nM): 18.9%
drug sensitivity score (BT-474 [12]): 4.97
drug sensitivity score (CAL-120 [13]): 6.2
drug sensitivity score (DU-4475 [14]): 1.15
drug sensitivity score (HCC1937 [15]): 3.81
drug sensitivity score (HDQ-P1 [16]): 3.33
drug sensitivity score (Hs578T [17]): 7.7
drug sensitivity score (MDA-MB-231 [18]): 3.55
drug sensitivity score (MDA-MB-453 [19]): 6.57
drug sensitivity score (MDA-MB-468 [20]): 12.2
drug sensitivity score (MFM-223 [21]): 7.28
drug sensitivity score (SK-BR-3 [22]): 12.8

NC(=O)c1ccc(I)c([N+](=O)[O-])c1 [Iniparib]
normalised viability (BT-474 [1]; 100 nM): 94.6%
normalised viability (BT-549; 100 nM): 106%
normalised viability (CAL-120 [2]; 100 nM): 105%
normalised viability (CAL-148; 10 nM): 96.3%
normalised viability (CAL-51; 10 nM): 93%
normalised viability (CAL-85-1; 10 nM): 87.6%
normalised viability (DU-4475 [3]; 10 nM): 101%
normalised viability (HCC1143; 100 nM): 86.8%
normalised viability (HCC1599; 100 nM): 103%
normalised viability (HCC1937 [4]; 100 nM): 109%
normalised viability (HDQ-P1 [5]; 10 nM): 108%
normalised viability (Hs578T [6]; 100 nM): 91.8%
normalised viability (MDA-MB-231 [7]; 100 nM): 98.8%
normalised viability (MDA-MB-436; 100 nM): 88.5%
normalised viability (MDA-MB-453 [8]; 10 nM): 86.2%
normalised viability (MDA-MB-468 [9]; 100 nM): 96.7%
normalised viability (MFM-223 [10]; 100 nM): 92.4%
normalised viability (SK-BR-3 [11]; 100 nM): 72.4%
drug sensitivity score (BT-474 [12]): 0
drug sensitivity score (CAL-120 [13]): 0
drug sensitivity score (DU-4475 [14]): 0
drug sensitivity score (HCC1937 [15]): 0
drug sensitivity score (HDQ-P1 [16]): 0
drug sensitivity score (Hs578T [17]): 0
drug sensitivity score (MDA-MB-231 [18]): 0
drug sensitivity score (MDA-MB-453 [19]): 0
drug sensitivity score (MDA-MB-468 [20]): 3.75
drug sensitivity score (MFM-223 [21]): 0
drug sensitivity score (SK-BR-3 [22]): 0

Oc1ccc2c(c1)CC[C@H](c1ccccc1)[C@@H]2c1ccc(OCCN2CCCC2)cc1 [Lasofoxifene]
normalised viability (BT-474 [1]; 10 nM): 122%
normalised viability (BT-549; 10 nM): 113%
normalised viability (CAL-120 [2]; 10 nM): 86.9%
normalised viability (CAL-148; 1 nM): 101%
normalised viability (CAL-51; 1 nM): 95.1%
normalised viability (CAL-85-1; 1 nM): 94.4%
normalised viability (DU-4475 [3]; 1 nM): 98.7%
normalised viability (HCC1143; 10 nM): 90.7%
normalised viability (HCC1599; 10 nM): 104%
normalised viability (HCC1937 [4]; 10 nM): 87.2%
normalised viability (HDQ-P1 [5]; 1 nM): 107%
normalised viability (Hs578T [6]; 10 nM): 84.3%
normalised viability (MDA-MB-231 [7]; 10 nM): 90.1%
normalised viability (MDA-MB-436; 10 nM): 85.3%
normalised viability (MDA-MB-453 [8]; 1 nM): 108%
normalised viability (MDA-MB-468 [9]; 10 nM): 87.2%
normalised viability (MFM-223 [10]; 10 nM): 82.8%
normalised viability (SK-BR-3 [11]; 10 nM): 83.2%
drug sensitivity score (BT-474 [12]): 0
drug sensitivity score (CAL-120 [13]): 0
drug sensitivity score (DU-4475 [14]): 0
drug sensitivity score (HCC1937 [15]): 0
drug sensitivity score (HDQ-P1 [16]): 0
drug sensitivity score (Hs578T [17]): 0
drug sensitivity score (MDA-MB-231 [18]): 0
drug sensitivity score (MDA-MB-453 [19]): 0
drug sensitivity score (MDA-MB-468 [20]): 0
drug sensitivity score (MFM-223 [21]): 0
drug sensitivity score (SK-BR-3 [22]): 0
